# Results reported in patent US20260218197A1, “EXTRACELLULAR VESICLE SECRETION REDUCING AGENT FOR REDUCING EXTRACELLULAR VESICLE SECRETION, AND USE OF THE SAME” (THEORIA SCIENCE INC., priority 2020, published 2026).
# Legend:
# [1] = test system: MDA-MB-231_Luc_D3H2LN cell line; experiment: Mice implanted with breast cancer metastatic cell line; format: in vivo; settings: 40 mg/kg intraperitoneal injection every day from Day 7, vs non-administration group (PBS)
# Protocol: As a breast cancer metastatic cell line, an MDA-MB-231_Luc_D3H2LN cell line (hereafter referred to as D3H2LN) was used. […] Specifically, the amounts of secreted EVs in the parent cell line and the D3H2LN were measured by the NTA analysis in the same manner as in Example A1, and also, expression of PSAT1 in the parent cell line and the D3H2LN were measured by Western blotting.
# Immunodeficient mice C. B-17 scid mice (female, 6-week old) were used as mice. The D3H2LN was suspended in PBS to prepare a cell suspension of 1×10^6 cells/100 μL. Then, on the 0th day (Day 0), 100 μL of the cell suspension was subcutaneously implanted in the mammary gland of each mouse by injection. Then, on the 7th day (Day7), the D3H2LN cells had engrafted, and to mice of an inhibitor administration group (n=6), an NCT-503 solution (solvent: PBS) was administered by intraperitoneal injection every day at 40 mg/kg of body weight. To mice of a non-administration group (n=6, Vehicle), the same amount of PBS was administered every day instead of the NCT-503. For each of the mice in both the administration group and the non-administration group, the tumor volume in the primary lesion (mammary gland) was measured every week using an IVIS-Spectrum (Summit Pharmaceuticals International Corporation). Specifically, the tumor volume was calculated as per the mathematical expression using the longest diameter and the shortest diameter (shortest diameter×shortest diameter×longest diameter×0.5). Also, the body weight of each mouse was measured every day to determine the toxicity. On the 35th day (Day 35), the mice were sacrificed and the mammary gland as the primary lesion and the lungs as the metastatic lesion were excised from each mouse, after which the weight of the primary lesion was measured.
# lung cancer cells A549 = experiment: Amount of secreted EVs by the NTA method; format: cell-based, human; settings: A549, 2.5 μmol/L, 48 hours, serine-deficient medium, compared with NC (DMSO)
# Protocol: (§1) The cultured cancer cells were washed with phosphate buffered saline (PBS), and the medium was replaced with advanced RPMI or advanced DMEM containing the above-described antibiotic-antimycotic agent and 2 mmol/L L-glutamine (Gibco). The adjusted culture solution after the replacement was centrifuged at 2,000×g for 10 minutes to remove the cells, and the supernatant obtained was filtered through a 0.22 μm filter (Millipore). The resulting filtrate was centrifuged at 110,000×g for 70 minutes, whereby pellets containing concentrated EVs were obtained. The pellets were washed with 11 mL of PBS, further ultracentrifuged at 110,000×g for 70 minutes, and collected again.
# (§2) The secreted EVs were collected and then suspended in PBS. […] An EV concentration was calculated as particles/cells in the culture solution, whereby a net EV secretion rate was obtained. […]
# (§3) In a 6-well plate, 2 mL of the cancer cell suspension was seeded at 1.0×10^5 cells/well and incubated for 24 hours. […] 48 hours after the replacement, total RNA was extracted, and the expression of the gene of interest was measured by qPCR.
# (§4) Colorectal cancer cells HCT116 and lung cancer cells A549 were each transfected with miR-891b. […] Then, according to the ExoScreen method described above, the amounts of the secreted EVs were measured by measuring the signal intensities. […]
# [2] = test system: colorectal cancer cells HCT116; experiment: Amount of secreted EVs by the NTA method; format: cell-based, human; settings: HCT116, 2.5 μmol/L, 48 hours, serine-deficient medium, compared with NC (DMSO)
# Protocol: as §1, §2, §3, §4
compound,measurement,setting,value
Cc1cc(C)nc(NC(=S)N2CCN(Cc3ccc(C(F)(F)F)cc3)CC2)c1 [NCT-503],tumor volume of the primary lesion (mammary gland),[1]; Day 21 and Day 35,significantly reduced
same,metastatic lesions in the lungs (HE-stained),[1]; Day 35,fewer metastatic lesions
same,tumor weight of the primary lesion (mammary gland),[1]; Day 35,significantly reduced
same,"amount of EVs in the media (NTA, relative to negative control = 1)",lung cancer cells A549,smaller
same,"amount of EVs in the media (NTA, relative to negative control = 1)",[2],smaller
